# Source: PMC3411462, “Long-acting κ opioid antagonists nor-BNI, GNTI and JDTic: pharmacokinetics in mice and lipophilicity” (BMC Pharmacology, 2012)
# “And” between values parts separate entries of the source, which are not always exact repeats. Identical values can stand only once. Like-named read-outs stand apart in the source and are kept apart here. Marks after values point to notes of the source that are not given here.
# Experiment: Brain and plasma concentrations in mice after intraperitoneal administration (LC-MS-MS), non-compartmental analysis
# Format: in vivo
# Conditions: for [drug],brain (free base equivalent) / [drug],plasma (free base equivalent): listed as JDTic.2HCl.H2O
# [1] = 0.5 h, 10 mg/kg i.p., individual mice, 10 mg/kg
# [2] = 1 h, 10 mg/kg i.p., individual mice, 10 mg/kg
# [3] = 2 h, 10 mg/kg i.p., individual mice, 10 mg/kg
# [4] = 4 h, 10 mg/kg i.p., individual mice, 10 mg/kg
# [5] = 24 h, 10 mg/kg i.p., individual mice, 10 mg/kg
compound,measurement,setting,value
"CC(C)[C@@H](CN1CC[C@@](C)(c2cccc(O)c2)[C@@H](C)C1)NC(=O)[C@H]1Cc2ccc(O)cc2CN1 [JDTic, (3R)-7-Hydroxy-N-((1S)-1-{[(3R,4R)-4-(3-hydroxyphenyl)-3,4-dimethyl-1-piperidinyl]methyl}-2-methylpropyl)-1,2,3,4-tetrahydro-3-isoquinolinecarboxamide]",Time of maximal mean plasma level,"10 mg kg^-1 i.p., mice",approximately 30 minutes
same,"[drug],brain (free base equivalent)",[1],66.3 ng/g and 60.3 ng/g and 155 ng/g and 37.5 ng/g and 49.5 ng/g and 57.9 ng/g
same,"[drug],plasma (free base equivalent)",[1],263 ng/mL and 237 ng/mL and 330 ng/mL and 248 ng/mL and 145 ng/mL
same,"[drug],brain (free base equivalent)",[2],61.5 ng/g and 45.3 ng/g and 38.1 ng/g and 116 ng/g and 49.2 ng/g and 56.7 ng/g
same,"[drug],plasma (free base equivalent)",[2],152 ng/mL and 270 ng/mL and 114 ng/mL and 126 ng/mL and 130 ng/mL and 134 ng/mL
same,"[drug],brain (free base equivalent)",[3],48.3 ng/g and 36.9 ng/g
same,"[drug],plasma (free base equivalent)",[3],57.3 ng/mL and 71 ng/mL
same,"[drug],brain (free base equivalent)",[4],80.4 ng/g and 46.2 ng/g
same,"[drug],plasma (free base equivalent)",[4],69.6 ng/mL and 40.3 ng/mL and 30 ng/mL
same,"[drug],brain (free base equivalent)",[5],30.3 ng/g and 32.1 ng/g
same,"[drug],plasma (free base equivalent)",[5],<4 ng/mL
same,"[drug],brain (free base equivalent)","48 h, 10 mg/kg i.p., individual mice, 10 mg/kg",936* ng/g and 32.7 ng/g and 16.7 ng/g
same,"[drug],brain (free base equivalent)","168 h, 10 mg/kg i.p., individual mice, 10 mg/kg",<12 ng/g (2×) and 43.8 ng/g
same,Peak unbound brain level,"at 30 minutes, 10 mg kg^-1 i.p., estimate",up to 4 nM
same,AUMC 0-inf_obs,"brain NCA, 10 mg/kg i.p.",3158084 ng/ml*h^2
same,Tlag,"brain NCA, 10 mg/kg i.p.",0 h
same,"C max,brain","brain, 10 mg kg^-1 i.p., mice",71 ng/mL
same,Decline of mean plasma concentration from peak,"by 24 hours, 10 mg kg^-1 i.p.",at least 98%
same,concentration at 4 h,"male, Swiss-Webster (Crl:CFW(SW)), mouse, brain, intraperitoneal, 10 mg/kg, 4 h, 10 mg/kg, read-out: Conc (brain, NCA input)",62.4 ng/mL
same,concentration at 24 h,"male, Swiss-Webster (Crl:CFW(SW)), mouse, brain, intraperitoneal, 10 mg/kg, 24 h, 10 mg/kg, read-out: Conc (brain, NCA input)",30.9 ng/mL
same,concentration at 48 h,"male, Swiss-Webster (Crl:CFW(SW)), mouse, brain, intraperitoneal, 10 mg/kg, 48 h, 10 mg/kg, read-out: Conc (brain, NCA input)",24.7 ng/mL
same,concentration at 168 h,"male, Swiss-Webster (Crl:CFW(SW)), mouse, brain, intraperitoneal, 10 mg/kg, 168 h, 10 mg/kg, read-out: Conc (brain, NCA input)",18.6 ng/mL
same,concentration at 4 h,"male, Swiss-Webster (Crl:CFW(SW)), mouse, brain, ip, 10 mg/kg, 4 h, 10 mg/kg i.p., individual mice, read-out: [drug],brain (free base equivalent)",60.6 ng/g
same,concentration at 4 h,"male, Swiss-Webster (Crl:CFW(SW)), mouse, brain, ip, 10 mg/kg, 4 h, 10 mg/kg i.p., read-out: mean (brain)",62.4 ng/g
same,concentration at 24 h,"male, Swiss-Webster (Crl:CFW(SW)), mouse, brain, ip, 10 mg/kg, 24 h, 10 mg/kg i.p., individual mice, read-out: [drug],brain (free base equivalent)",30.3 ng/g
same,concentration at 24 h,"male, Swiss-Webster (Crl:CFW(SW)), mouse, brain, ip, 10 mg/kg, 24 h, 10 mg/kg i.p., read-out: mean (brain)",30.9 ng/g
same,concentration at 48 h,"male, Swiss-Webster (Crl:CFW(SW)), mouse, brain, ip, 10 mg/kg, 48 h, 10 mg/kg i.p., outlier excluded, read-out: mean (brain)",24.7 ng/g
same,concentration at 168 h,"male, Swiss-Webster (Crl:CFW(SW)), mouse, brain, ip, 10 mg/kg, 168 h, 10 mg/kg i.p., <MRC substituted by MRC/2, read-out: mean (brain)",18.6 ng/g
same,AUC(0-inf),"male, Swiss-Webster (Crl:CFW(SW)), mouse, brain, ip, 10 mg/kg, brain NCA, 10 mg/kg i.p., read-out: AUC 0-inf_obs",10300 ng·h/mL
same,Kp uu,"male, Swiss-Webster (Crl:CFW(SW)), mouse, brain/plasma (unbound), ip, supplement, 10 mg/kg i.p., read-out: Kp,uu,brain (AUC0–∞,brain,u / AUC0–∞,p,u)",< 1.42
same,Kp,"male, Swiss-Webster (Crl:CFW(SW)), mouse, brain/plasma, ip, 10 mg/kg, supplement, 10 mg/kg i.p., read-out: Kp,brain (AUC0–∞,brain / AUC0–∞,p)",11.6
same,MRT inf,"male, Swiss-Webster (Crl:CFW(SW)), mouse, ip, brain NCA, 10 mg/kg i.p., read-out: MRT 0-inf_obs",12.8 days
same,Kp uu,"male, Swiss-Webster, mouse, brain and plasma (unbound), ip, 10 mg kg^-1, 10 mg kg^-1 i.p., mice, read-out: K p,uu,brain (AUC0–∞,brain,u/AUC0–∞,p,u)",≤ 1.4
same,Kp uu,"male, Swiss-Webster, mouse, brain and plasma (unbound), ip, 10 mg/kg, 10 mg kg^-1 i.p., mice, read-out: Cmax,brain,u/Cmax,p,u",< 0.04
same,Kp,"male, Swiss-Webster, mouse, brain and plasma, ip, 10 mg kg^-1, 10 mg kg^-1 i.p., mice, read-out: K p,brain (AUC0–∞,brain/AUC0–∞,p)",11.6
same,Kp,"male, Swiss-Webster, mouse, brain and plasma, ip, 10 mg/kg, 10 mg kg^-1 i.p., mice, read-out: Cmax,brain/Cmax,p",0.29
same,concentration at 0.5 h,"male, Swiss-Webster, mouse, brain, intraperitoneal, 10 mg/kg, 0.5 h, 10 mg/kg, read-out: Conc (brain, NCA input)",71.1 ng/mL
same,concentration at 1 h,"male, Swiss-Webster, mouse, brain, intraperitoneal, 10 mg/kg, 1 h, 10 mg/kg, read-out: Conc (brain, NCA input)",61.1 ng/mL
same,concentration at 2 h,"male, Swiss-Webster, mouse, brain, intraperitoneal, 10 mg/kg, 2 h, 10 mg/kg, read-out: Conc (brain, NCA input)",38.4 ng/mL
same,half-life,"male, Swiss-Webster, mouse, brain, ip, 10 mg/kg, 10 mg kg^-1 i.p., mice, read-out: Terminal half-life in brain (converted)",~9 days
same,concentration at 0.5 h,"male, Swiss-Webster, mouse, brain, ip, 10 mg/kg, 0.5 h, 10 mg/kg i.p., read-out: mean (brain)",71.1 ng/g
same,concentration at 1 h,"male, Swiss-Webster, mouse, brain, ip, 10 mg/kg, 1 h, 10 mg/kg i.p., read-out: mean (brain)",61.1 ng/g
same,concentration at 2 h,"male, Swiss-Webster, mouse, brain, ip, 10 mg/kg, 2 h, 10 mg/kg i.p., individual mice, read-out: [drug],brain (free base equivalent)",30 ng/g
same,concentration at 2 h,"male, Swiss-Webster, mouse, brain, ip, 10 mg/kg, 2 h, 10 mg/kg i.p., <MRC substituted by MRC/2, read-out: mean (brain)",38.4 ng/g
